Drawing on ChEMBL document CHEMBL2074455, “The fluorescent probe Bodipy-FL-verapamil is a substrate for both P-glycoprotein and multidrug resistance-related protein (MRP)-1” (J Histochem Cytochem, 2002), this text covers Activity for 1 molecule.

The target in series [1] is Multidrug resistance-associated protein 1 (Homo sapiens, UniProt P33527). Briefly: TP_TRANSPORTER: efflux, inhibited by MK571 in PANC-1 cells. It counts as functional, cell-based.
Series [2] has as its target ATP-dependent translocase ABCB1 (Mus musculus, UniProt P21447). Briefly: TP_TRANSPORTER: efflux, inhibited by Verapamil in P388/ADR cells. The format is functional, cell-based.

Chain of ATP-dependent translocase ABCB1 (P21447 whole entry): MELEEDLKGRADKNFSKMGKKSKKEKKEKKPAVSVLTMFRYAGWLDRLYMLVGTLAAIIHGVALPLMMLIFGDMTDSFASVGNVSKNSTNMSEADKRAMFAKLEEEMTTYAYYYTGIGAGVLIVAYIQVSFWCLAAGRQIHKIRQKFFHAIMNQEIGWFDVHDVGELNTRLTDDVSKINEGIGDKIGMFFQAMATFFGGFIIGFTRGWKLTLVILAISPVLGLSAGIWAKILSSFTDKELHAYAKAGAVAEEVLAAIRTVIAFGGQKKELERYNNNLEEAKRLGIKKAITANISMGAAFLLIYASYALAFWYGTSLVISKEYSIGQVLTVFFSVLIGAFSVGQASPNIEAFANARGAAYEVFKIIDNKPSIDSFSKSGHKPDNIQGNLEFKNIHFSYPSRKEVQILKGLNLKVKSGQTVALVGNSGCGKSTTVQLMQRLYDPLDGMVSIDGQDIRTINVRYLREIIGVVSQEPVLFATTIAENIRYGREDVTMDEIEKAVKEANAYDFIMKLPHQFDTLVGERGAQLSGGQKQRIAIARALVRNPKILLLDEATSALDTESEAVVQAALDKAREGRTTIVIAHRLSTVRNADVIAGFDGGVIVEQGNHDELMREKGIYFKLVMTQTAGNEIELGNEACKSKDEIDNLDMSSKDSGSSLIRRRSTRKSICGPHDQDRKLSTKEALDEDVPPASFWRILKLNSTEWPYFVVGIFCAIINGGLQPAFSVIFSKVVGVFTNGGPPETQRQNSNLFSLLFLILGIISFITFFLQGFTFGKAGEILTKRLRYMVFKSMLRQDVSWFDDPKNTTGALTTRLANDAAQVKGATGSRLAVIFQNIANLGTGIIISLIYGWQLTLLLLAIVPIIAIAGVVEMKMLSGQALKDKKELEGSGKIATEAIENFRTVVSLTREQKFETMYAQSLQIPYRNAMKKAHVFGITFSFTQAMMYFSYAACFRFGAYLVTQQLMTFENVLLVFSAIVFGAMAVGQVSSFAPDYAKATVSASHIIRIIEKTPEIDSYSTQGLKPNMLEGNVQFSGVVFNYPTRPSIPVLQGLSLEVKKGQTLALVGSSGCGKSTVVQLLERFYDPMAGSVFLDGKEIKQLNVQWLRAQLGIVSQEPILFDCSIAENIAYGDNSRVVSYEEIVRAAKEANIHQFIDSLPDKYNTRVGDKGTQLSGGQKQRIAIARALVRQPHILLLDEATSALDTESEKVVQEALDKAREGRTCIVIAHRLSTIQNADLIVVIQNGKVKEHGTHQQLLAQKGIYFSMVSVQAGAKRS
Chain of Multidrug resistance-associated protein 1 (P33527 whole entry): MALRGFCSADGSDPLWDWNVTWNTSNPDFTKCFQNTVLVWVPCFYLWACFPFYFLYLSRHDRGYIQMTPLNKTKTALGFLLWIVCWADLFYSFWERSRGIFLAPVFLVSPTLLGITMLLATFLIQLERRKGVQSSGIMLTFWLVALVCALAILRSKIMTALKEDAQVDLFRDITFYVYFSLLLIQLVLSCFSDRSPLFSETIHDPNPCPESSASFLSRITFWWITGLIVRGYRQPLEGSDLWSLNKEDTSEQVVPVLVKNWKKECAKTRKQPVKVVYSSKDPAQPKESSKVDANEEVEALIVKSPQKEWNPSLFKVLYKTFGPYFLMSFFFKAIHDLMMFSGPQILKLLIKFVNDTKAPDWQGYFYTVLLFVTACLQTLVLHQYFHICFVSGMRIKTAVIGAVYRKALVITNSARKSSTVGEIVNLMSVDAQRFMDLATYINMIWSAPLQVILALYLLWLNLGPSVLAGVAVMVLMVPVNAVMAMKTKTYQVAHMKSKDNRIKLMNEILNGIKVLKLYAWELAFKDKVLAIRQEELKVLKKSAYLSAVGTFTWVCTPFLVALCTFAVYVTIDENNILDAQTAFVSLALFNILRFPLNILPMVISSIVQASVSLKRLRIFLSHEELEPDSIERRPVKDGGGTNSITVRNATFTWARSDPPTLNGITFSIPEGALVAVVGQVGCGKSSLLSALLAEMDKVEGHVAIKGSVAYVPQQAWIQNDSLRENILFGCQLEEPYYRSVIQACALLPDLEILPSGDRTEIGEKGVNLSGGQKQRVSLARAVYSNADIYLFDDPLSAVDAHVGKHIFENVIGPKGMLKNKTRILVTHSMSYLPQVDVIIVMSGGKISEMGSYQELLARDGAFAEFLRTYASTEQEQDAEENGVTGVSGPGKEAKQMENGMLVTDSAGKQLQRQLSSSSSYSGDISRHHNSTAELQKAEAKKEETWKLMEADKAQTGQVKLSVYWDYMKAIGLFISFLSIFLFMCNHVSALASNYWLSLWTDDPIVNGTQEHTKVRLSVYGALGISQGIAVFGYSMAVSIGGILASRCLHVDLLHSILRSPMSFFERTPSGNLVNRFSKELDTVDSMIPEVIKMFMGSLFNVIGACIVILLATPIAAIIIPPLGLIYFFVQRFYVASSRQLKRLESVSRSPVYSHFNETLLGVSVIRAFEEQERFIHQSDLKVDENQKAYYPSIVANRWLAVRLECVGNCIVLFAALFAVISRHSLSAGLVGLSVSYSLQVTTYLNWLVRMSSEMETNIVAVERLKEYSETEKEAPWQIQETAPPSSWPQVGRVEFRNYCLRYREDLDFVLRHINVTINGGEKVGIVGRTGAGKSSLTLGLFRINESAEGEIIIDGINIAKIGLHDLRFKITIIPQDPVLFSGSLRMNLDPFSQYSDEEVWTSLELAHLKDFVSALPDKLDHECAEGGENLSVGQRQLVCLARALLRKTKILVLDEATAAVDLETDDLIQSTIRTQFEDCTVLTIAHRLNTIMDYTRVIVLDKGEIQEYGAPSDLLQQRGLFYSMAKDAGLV

As for `COc1ccc(CCN(C)CCCC(CNC(=O)NCC2=[N+]3C(=Cc4c(C)cc(C)n4[B-]3(F)F)C=C2)(c2ccc(OC)c(OC)c2)C(C)C)cc1OC` (configuration not stated), the Activity entry in series [1] and in series [2] was “substrate [+]” throughout.
